In brackets after ≈: the same amount, converted by molar mass. Like-named read-outs stand apart in the source and are kept apart here.
Experiments:
[1] = tested on: HeLa (human cervical carcinoma) cells; assay: Cell growth assay (XTT), HeLa; type: cell-based; conditions: 72 h drug exposure, read-out: Antiproliferative activity IC50 HeLa
Procedure: (§1) The presence of mycoplasma was routinely checked with MycoAlert kit (Lonza-Cambrex) and only mycoplasma-free cells were used in the experiments. Tumour cell lines were kindly provided by Dr Faustino Mollinedo from Centro de Investigaciones Biológicas Margarita Salas, Madrid, Spain. To determine cell growth, cells in exponential growth phase were seeded (100 µL/well in 96-well plates) with appropriate cell concentration (1.5 × 10^4 cells/mL for MCF7, HeLa and HEK-293 and 3 × 10^4 cells/mL for HT-29) in complete DMEM or RPMI 1640 medium (see above) at 37 °C and 5% CO2 atmosphere. After 24 h incubation, to allow cells to attach to the plates, all compounds were added at 1 µM concentration (10 µL/well in 96-well plates) and the effect on the proliferation was evaluated 72 h post-treatment. Compounds showing antiproliferative effects at tested concentration were selected for IC50 calculation (50% inhibitory concentration compared to the untreated controls) from 10^−5 to 10^−10 M concentration. Nonlinear curves fitting the experimental data were carried out for each compound. […] A freshly prepared mixture solution of XTT labelling reagent with 0.02% (v/v) PMS (N-methyl-dibenzopyrazine methyl sulfate) electron coupling reagent was added to cells (50 µL/well in 96-well plates, the total volume of 160 µL/well) and were incubated during the corresponding time according to each cell line (4 h for MCF7 and HeLa and 6 h for HT-29 and HEK-293) in a humidified atmosphere (37 °C, 5% CO2). The absorbance of the formazan product generated was measured at a test wavelength of 450 nm using a multi-well plate reader (Ultra Evolution, Tecan, Männedorf, Suiza). Compounds were dissolved in DMSO and the final solvent concentrations never exceeded 0.5% (v/v). The control wells included treated cells with 0.5% (v/v) DMSO and the positive control. 10 µM verapamil was included as a control for the HT-29 cell line. Measurements were performed in triplicate, and each experiment was repeated three times.

[2] = tested on: HT-29 (human colon carcinoma) cells; assay: Cell growth assay (XTT), HT-29, alone or with verapamil; type: cell-based
Procedure: as §1, with “Compounds showing antiproliferative effects at tested concentration were selected for IC50 calculation (50% inhibitory concentration compared to the untreated controls) from 10^−5 to 10^−10 M concentration.” left out

[3] = Aqueous solubility (saturation shake-flask, UV); type: physicochemical; conditions: pH 7.0 phosphate buffer, room temperature; for solubility at 48 h: aqueous buffer, thermodynamic from solid
Procedure: The aqueous solubility was determined in a Helios-α UV-320 Spectrophotometer Thermo-Spectronic, Thermo Fischer Scientific, Waltham, MA, USA) using an approach based on the saturation shake-flask method. 1–2 mg of each selected compound was suspended in 300 µL pH 7.0 buffer and stirred for 48 h at room temperature. The resulting mixture was filtered through a […] filter to discard the insoluble residues. A scan between 270 and 400 nm for the tested compound was performed and three wavelengths of maximum absorbance were selected. Calibration curves were performed at these wavelengths and the concentration in the supernatant was measured by UV absorbance. The final value was given as the average of the three measurements.

[4] = tested on: MCF7 (human breast carcinoma) cells; assay: Cell growth assay (XTT), MCF7; type: cell-based; conditions: Homo sapiens, MCF7; 72 h drug exposure, XTT; read-out: Antiproliferative activity IC50 MCF7
Procedure: as §1

[5] = target: T1, microtubular protein isolated from calf brain (Bos taurus, UniProt P81947+Q6B856); assay: Inhibition of tubulin polymerisation (turbidity); type: biochemical; conditions: for TPI % 10 µM: 10 µM compound, 1.5 mg/mL microtubular protein; for IC50: in vitro tubulin polymerisation inhibition, read-out: TPI IC50
T1 construct: isolated from calf brain according to the modified Shelanski method; from tissue; host or cells: calf brain
T1 sequence (Q6B856 whole entry): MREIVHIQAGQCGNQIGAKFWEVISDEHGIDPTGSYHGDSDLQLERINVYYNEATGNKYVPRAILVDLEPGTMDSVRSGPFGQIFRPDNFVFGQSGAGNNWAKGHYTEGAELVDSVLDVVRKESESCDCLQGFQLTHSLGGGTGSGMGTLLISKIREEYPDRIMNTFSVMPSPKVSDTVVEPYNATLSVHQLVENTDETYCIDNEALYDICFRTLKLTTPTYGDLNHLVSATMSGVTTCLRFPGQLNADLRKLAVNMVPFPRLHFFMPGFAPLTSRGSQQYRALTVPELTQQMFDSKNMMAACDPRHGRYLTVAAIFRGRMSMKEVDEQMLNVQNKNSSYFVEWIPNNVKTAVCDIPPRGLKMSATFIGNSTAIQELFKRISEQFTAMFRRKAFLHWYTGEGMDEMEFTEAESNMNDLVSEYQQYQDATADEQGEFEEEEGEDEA
T1 sequence (P81947 whole entry): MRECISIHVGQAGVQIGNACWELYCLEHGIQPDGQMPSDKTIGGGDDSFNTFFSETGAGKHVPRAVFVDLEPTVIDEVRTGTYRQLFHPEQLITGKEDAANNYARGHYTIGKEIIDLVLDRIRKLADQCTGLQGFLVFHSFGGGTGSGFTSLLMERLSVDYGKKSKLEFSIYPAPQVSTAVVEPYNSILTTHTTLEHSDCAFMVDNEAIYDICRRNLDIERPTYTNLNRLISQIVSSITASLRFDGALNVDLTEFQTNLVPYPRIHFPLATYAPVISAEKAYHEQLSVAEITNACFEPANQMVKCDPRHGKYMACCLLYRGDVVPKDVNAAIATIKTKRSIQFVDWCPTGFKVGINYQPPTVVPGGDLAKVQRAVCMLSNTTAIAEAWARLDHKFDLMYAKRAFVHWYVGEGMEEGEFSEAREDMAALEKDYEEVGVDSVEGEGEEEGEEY
Procedure: Microtubular protein was isolated from calf brain according to the modified Shelanski method[23]^,[24] by two cycles of temperature-dependent assembly/disassembly and stored at −80 °C. Before each use, protein concentration is determined by Bradford method[25] taking BSA as standard. Tubulin polymerisation was monitored using a Helios α spectrophotometer by measuring the increase in turbidity at 450 nm, caused by a shift from 4 °C to 37 °C, which allows the in vitro microtubular protein to depolymerise and to polymerise, respectively. The assay was carried out in quartz cuvettes containing 1.5 mg/mL microtubular protein and the ligand (except for control cuvette with only DMSO at the same concentration) in a mixture of 0.1 M MES buffer, 1 mM EGTA, 1 mM MgCl2, 1 mM β-ME, and 1.5 mM GTP at pH 6.7 (final volume 500 µL). Cuvettes were preincubated at 20 °C for 30 min, to allow ligand binding to tubulin, and subsequently cooled on ice for 10 min. Then, the experiment starts at 4 °C to establish the initial baseline. The assembly process was initiated by a temperature shift to 37 °C and the turbidity produced by tubulin polymerisation can be measured by an absorbance increase. After reaching a stable plateau, the temperature was switched back to 4 °C to return to the initial absorption values (to confirm the reversible nature of the monitored process and to determine whether or not the microtubular protein has stabilized). The difference in amplitude between the stable plateau and the initial baseline of the curves was taken as the degree of tubulin polymerisation for each experiment. […] All compounds were tested at 10 µM concentration. IC50 values were calculated for compounds that inhibit tubulin polymerisation more than 50% at 10 µM. […] All the measurements were carried out in at least two independent experiments using microtubular protein from different preparations.

[6] = 72 h, in the presence of Pgp/MDR1 inhibitor verapamil (10 µM), read-out: Antiproliferative activity IC50 HT-29 Verap
[7] = Homo sapiens, HT-29, 72 h drug exposure, XTT, read-out: Antiproliferative activity IC50 HT-29

SMILES | IC50 [1] [nM] | IC50 [2, 6] [nM] | IC50 [2, 7] [nM] | IC50 [4] [nM] | TPI % 10 µM [5] [%] | solubility at 48 h [3] [µg/mL] | IC50 [5] [nM] | melting point [°C] | Difference of IC50 values HeLa vs HT-29 [2] [fold] | Aqueous solubility ([3]; 48 h) [µg/mL]
COc1ccc(/C=C\c2cc(OC)c(OC)c(OC)c2)cc1O [Combretastatin A-4, combretastatin A-4, reference compound] | 2 | 327 | 305 | 1 | 100 |  |  |  | > 100 | 1
COc1ccc(S(=O)(=O)N(C)c2ccc(OC)c(OC)c2)cc1 [Compound 12, N-(3,4-dimethoxyphenyl)-4-methoxy-N-methylbenzenesulphonamide] | > 1000 |  | > 1000 | > 1000 | 0 | 70 (≈ 207 µM) | > 10000 |  |  | 
CCOC(=O)CN(c1cc(OC)c(OC)cc1Br)S(=O)(=O)c1ccc(OC)cc1 [Compound 17, Ethyl N-(2-bromo-4,5-dimethoxyphenyl)-N-((4-methoxyphenyl)sulphonyl)glycinate] | > 1000 |  | > 1000 | > 1000 | 0 |  | > 10000 | 116 to 126 |  | 
COc1ccc(S(=O)(=O)N(Cc2ccccc2)c2cc(OC)c(OC)cc2Br)cc1 [Compound 18, N-benzyl-N-(2-bromo-4,5-dimethoxyphenyl)-4-methoxybenzenesulphonamide] | > 1000 |  | > 1000 | > 1000 | 38 |  | > 10000 | 114 to 120 |  | 
COc1ccc(S(=O)(=O)N(CC(=O)O)c2cc(OC)c(Br)cc2OC)cc1 [Compound 29, N-(4-bromo-2,5-dimethoxyphenyl)-N-((4-methoxyphenyl)sulphonyl)glycine] | > 1000 |  | > 1000 | > 1000 | 8 |  | > 10000 | 180 to 184 |  | 
CCOC(=O)CN(c1cc(OC)c(OC)cc1OC)S(=O)(=O)c1ccc(OC)cc1 [Compound 36, Ethyl N-((4-methoxyphenyl)sulphonyl)-N-(2,4,5-trimethoxyphenyl)glycinate] | > 1000 |  | > 1000 | > 1000 | 0 |  | > 10000 | 127 to 132 |  | 

Continued, in another order:

IC50 [1] [nM] | IC50 [2, 6] [nM] | IC50 [2, 7] [nM] | IC50 [4] [nM] | TPI % 10 µM [5] [%] | solubility at 48 h [3] [µg/mL] | IC50 [5] [nM] | melting point [°C] | SMILES | Difference of IC50 values HeLa vs HT-29 [2] [fold] | Aqueous solubility ([3]; 48 h) [µg/mL]
877 |  | > 1000 | 765 | 10 | 35 (≈ 104 µM) | > 10000 | 120 to 128 | COc1ccc(S(=O)(=O)N(C)c2cc(OC)cc(OC)c2)cc1 [Compound 2, N-(3,5-dimethoxyphenyl)-4-methoxy-N-methylbenzenesulphonamide] |  | 
> 1000 |  | > 1000 | > 1000 | 0 |  | > 10000 | 156 to 160 | COc1ccc(S(=O)(=O)N(C)c2cc(OC)cc(OC)c2Br)cc1 [Compound 8b, N-(2-bromo-3,5-dimethoxyphenyl)-4-methoxy-N-methylbenzenesulphonamide] |  | 
> 1000 |  | > 1000 | > 1000 | 0 |  | > 10000 | 141 to 144 | CCN(c1cc(OC)cc(OC)c1Br)S(=O)(=O)c1ccc(OC)cc1 [Compound 9b, N-(2-bromo-3,5-dimethoxyphenyl)-N-ethyl-4-methoxybenzenesulphonamide] |  | 
> 1000 |  | > 1000 | > 1000 | 4 | 82 (≈ 254 µM) | > 10000 | 101 to 102 | COc1ccc(S(=O)(=O)Nc2ccc(OC)c(OC)c2)cc1 [Compound 11, N-(3,4-dimethoxyphenyl)-4-methoxybenzenesulphonamide] |  | 
510 |  | 543 |  | 0 | 22 (≈ 54.7 µM) | > 10000 | 162 to 167 | COc1ccc(S(=O)(=O)Nc2cc(OC)c(OC)cc2Br)cc1 [Compound 13, N-(2-bromo-4,5-dimethoxyphenyl)-4-methoxybenzenesulphonamide] |  | 
557 |  | 907 |  | 0 | 61 (≈ 147 µM) | > 10000 | 136 to 141 | COc1ccc(S(=O)(=O)N(C)c2cc(OC)c(OC)cc2Br)cc1 [Compound 14, N-(2-bromo-4,5-dimethoxyphenyl)-4-methoxy-N-methylbenzenesulphonamide] |  | 
313 | 500 | 365 | 660 | 24 | 26 (≈ 60.4 µM) | > 10000 | 111 to 117 | CCN(c1cc(OC)c(OC)cc1Br)S(=O)(=O)c1ccc(OC)cc1 [Compound 15, N-(2-bromo-4,5-dimethoxyphenyl)-N-ethyl-4-methoxybenzenesulphonamide] |  | 
313 | 1070 | 500 | 715 | 19 | 122 (≈ 320 µM) | > 10000 |  | CCN(c1cc(OC)c(OC)cc1OC)S(=O)(=O)c1ccc(OC)cc1 [Compound 34, N-ethyl-4-methoxy-N-(2,4,5-trimethoxyphenyl)benzenesulphonamide] |  | 

Source: publication PMC8205030, “Methoxy and bromo scans on N-(5-methoxyphenyl) methoxybenzenesulphonamides reveal potent cytotoxic compounds, especially against the human breast adenocarcinoma MCF7 cell line” (Journal of Enzyme Inhibition and Medicinal Chemistry, 2021)
